Source: US8853242B2, “Nitrogenous-ring acylguanidine derivative” (Astellas Pharma Inc., priority 2009, dated 2014)

System: Male ddY mouse
Experiment: Spontaneous alternation behavior (Y-maze) induced by Scoporamine in mice
Type: in vivo
Details: oral dose 0.001 mg/kg, Scoporamine 0.5 mg/kg i.p.
Experimental: The improvement effect of compound of formula (I) on cognitive impairment of dementia and schizophrenia was evaluated by a known test method as a model with short-term learning disorder.
After 10 to 30 minutes from oral administration of the test compound, 0.5 mg/kg of Scoporamine or 0.15 mg/kg of MK-801 (in the case of a normal group, physiological saline was administered) was intraperitoneally administered. After 20 minutes, the test was conducted. In addition, solvent (vehicle) was orally administered to the normal group (to which physiological saline was administered) and to the control group (to which 0.5 mg/kg of Scoporamine or 0.15 mg/kg of MK-801 was administered), when the test compound was administered.
A mouse was placed at the end of one arm of a Y-maze having arms with the same length in three directions, and then allowed to explore freely and the number of arm entries was counted for 8 minutes. Further, spontaneous alternation behavior was defined as entries into all three different arms on consecutive occasions, and the ratio of the number of instances of this behavior to the total number of the entries was calculated as an alternation rate by the following formula: Alternation rate(%)=Number of spontaneous alternation behaviors/(Total number of entries−2)×100.
If a significant difference between the normal group and the control group (Student's T test) was approved in the alternation rate (%), it was considered to have learning disorder by the administration of Scoporamine or MK-801. By carrying out a Dunnett's test on the group administered with the test compound with respect to the control group, the presence or absence of effect of the test compound on learning disorder was evaluated. For each assay, it was considered that there was a tendency when p<0.10 and there was a significant difference when p<0.05.

SMILES	spontaneous alternation behavior induced by Scoporamine
NC(N)=NC(=O)c1ccc2c(F)cnc(-c3c(F)cncc3F)c2c1 [Example 157]	significantly inhibited

Target: human 5-HT5A receptor (Homo sapiens (Human), UniProt P47898)
Sequence (P47898 whole entry): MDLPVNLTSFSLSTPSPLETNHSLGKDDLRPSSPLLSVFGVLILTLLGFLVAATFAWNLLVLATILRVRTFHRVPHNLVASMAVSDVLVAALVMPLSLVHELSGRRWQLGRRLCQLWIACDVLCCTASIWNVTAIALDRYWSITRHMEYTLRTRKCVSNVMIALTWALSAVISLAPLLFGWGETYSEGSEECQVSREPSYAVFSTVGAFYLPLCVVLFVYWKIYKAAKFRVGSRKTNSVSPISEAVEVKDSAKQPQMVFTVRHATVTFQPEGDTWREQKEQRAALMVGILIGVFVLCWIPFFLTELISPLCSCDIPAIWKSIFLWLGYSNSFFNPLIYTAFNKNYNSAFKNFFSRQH
Experiment: Test on a human 5-HT5A receptor binding inhibition ([3H]5-CT)
Details: [3H]5-CT binding inhibition, membrane from HEK293 cells expressing human 5-HT5A receptor; Ki calculated from IC50
Experimental: The ORF (open reading frame; protein coding region) of a human 5-HT5A receptor (Genbank AF498985) was cloned from a human hippocampus cDNA library, and then inserted into a pCR2.1 vector (Invitrogen), and Escherichia coli containing the plasmid was cultured in a large amount. Next, the full-length cDNA sequence of the human 5-HT5A receptor was analyzed, and recombined into a pCDNA3.1 vector (Invitrogen) as an expression vector and cultured in a large amount. HEK293 established cells (ATCC) derived from the human fetal kidney were seeded, the expression plasmid (1 μg) obtained above were added thereto with LIPOFECTAMINE 2000 (Invitrogen; 2 μl), the gene was transfected into HEK293 cells, and the expression cells were screened with a drug-resistant marker, Geneticin (G418 sulfate 500 μg/ml; Kanto Chemical Co., Inc.). Thus prepared recombinant cells which expressed the gene were cultured in a medium containing D-MEM (Dulbecco's modified eagle medium, Sigma), 10% FCS (Fetal calf serum: fetal bovine serum), 1% Pc./Sm (Penicillin/Streptomycin, Invitrogen), and 500 μg/ml G418 for 3 days. These experimental operations followed a manual for gene operation experiment and an instruction appended in a reagent, and the like, such as a known method (Sambrook, J. et al, Molecular Cloning-A Laboratory Manual”, Cold Spring Harabor laboratory, NY, 1989).
HEK293 cells for forced expressions of a human 5-HT5A receptor were cultured in a F500 plate, and scraped with a scraper. After centrifugation, the precipitate was collected, and an incubation buffer (50 mM Tris (HCl) (pH 7.4), 10 mM MgSO4, and 0.5 mM EDTA (ethylenediamine tetraacetic acid)) was added thereto. After homogenization, it was further centrifuged, and the incubation buffer was added to the precipitate, followed by thoroughly suspending. The operation was repeated, and protein concentration was measured, thereby completing preparation of the membrane.
A solution of the compound to be tested and 100 μM 5-CT (5-carboxamidetriptamine) in DMSO was added to a 96-well plate at 2 μl/well, suspended in an incubation buffer, and a membrane from HEK293 cells for forced expressions of a human 5-HT5A receptor prepared at 200 μg/ml was added at 100 μl/well. After incubation at room temperature for 15 minutes, a [^3H]5-CT solution (2 nM [^3H]5-CT, incubation buffer) was added thereto at 100 μl/well.
Separately, 100 μl of the solution was distributed into a liquid scintillation vial, and 2 ml of Aquasol II (registered trademark) was added thereto, followed by stirring. Then, radioactivity was measured by a liquid scintillation counter. It was incubated at 37° C. for 60 minutes. The reaction mixture was sucked into 96-well GF/C filter plate that had been pre-treated with 0.2% polyethyleneimine, and washed six times with an ice-cooled, 50 mM Tris (pH 7.5) buffer. The GF/C filter plate was dried.
Microscint TMPS (registered trademark) was added thereto at 40 μl/well. Radioactivity remaining on the GF/C filter plate was measured by a top counter.
The [^3H]5-CT binding inhibiting activity by the compound to be tested in each experiment was determined as an IC50 value with a radioactivity upon addition of DMSO alone being 0% inhibition, and a radioactivity upon addition of 1 μM 5-CT being 100% inhibition. Separately, Ki values were calculated from the Kd value of the [^3H]5-CT determined from Scatchard analysis, by the following equation. Ki=IC50(1+Concentraion of ligand added/Kd(4.95 nM))

SMILES	Ki [nM]
NC(N)=NC(=O)c1ccc2c(F)cnc(-c3ccc(F)cc3Cl)c2c1 [Example 151]	4.1
Cc1cnc(-c2c(F)cc(F)cc2F)c2cc(C(=O)N=C(N)N)ccc12 [Example 152]	1.3
NC(N)=NC(=O)c1ccc2c(F)cnc(-c3c(F)cncc3F)c2c1 [Example 157]	5.3
COc1cccc(F)c1-c1ncc(F)c2ccc(C(=O)N=C(N)N)cc12 [Example 159]	7.1
NC(N)=NC(=O)c1ccc2c(F)cnc(-c3ccccc3Cl)c2c1 [Example 161]	3.4
NC(N)=NC(=O)c1ccc2c(Cl)cnc(-c3c(F)cccc3F)c2c1 [Example 162]	1.2
NC(N)=NC(=O)c1ccc2c(F)cnc(-c3c(F)cncc3Cl)c2c1 [Example 164]	4.7
Cc1cnc(-c2c(F)cccc2F)c2cc(C(=O)N=C(N)N)ccc12 [Example 170]	1.9
NC(N)=NC(=O)c1ccc2c(F)cnc(-c3ncc(F)cc3Cl)c2c1 [Example 171]	6.2
NC(N)=NC(=O)c1ccc2c(Cl)cnc(-c3ccc(F)cc3F)c2c1 [Example 211]	2.3

Same assay, conditions: [3H]5-CT binding, membrane from HEK293 cells expressing human 5-HT5A receptor; Ki calculated from IC50

SMILES	Ki [nM]
NC(N)=NC(=O)c1ccc2ncc(Cl)c(-c3ccc(F)cc3)c2c1 [Example 73]	1 to 10
Cc1nc(-c2c(F)cc(F)cc2F)c2cc(C(=O)N=C(N)N)ccc2c1F [Example 154]	1 to 10
Cc1cc2ccc(C(=O)N=C(N)N)cc2c(-c2c(F)cccc2F)n1 [Example 155]	10 to 100
NC(N)=NC(=O)c1ccc2c(C3CC3)cnc(-c3c(F)cccc3F)c2c1 [Example 156]	10 to 100
NC(N)=NC(=O)c1ccc2c(F)cnc(-c3c(F)cncc3F)c2c1 [Example 157]	1 to 10
CC(C)c1cnc(-c2c(F)cccc2F)c2cc(C(=O)N=C(N)N)ccc12 [Example 158]	10 to 100
COc1cccc(F)c1-c1ncc(F)c2ccc(C(=O)N=C(N)N)cc12 [Example 159]	1 to 10
NC(N)=NC(=O)c1ccc2c(F)cnc(-c3ccccc3Cl)c2c1 [Example 161]	1 to 10
NC(N)=NC(=O)c1ccc2c(F)cnc(-c3ccncc3Cl)c2c1 [Example 163]	10 to 100
NC(N)=NC(=O)c1ccc2c(F)cnc(-c3c(F)cncc3Cl)c2c1 [Example 164]	1 to 10
NC(N)=NC(=O)c1ccc2c(F)cnc(-c3ccncc3F)c2c1 [Example 165]	10 to 100
COc1cccc(F)c1-c1ncc(Cl)c2ccc(C(=O)N=C(N)N)cc12 [Example 166]	1 to 10
CCc1cnc(-c2c(F)cccc2F)c2cc(C(=O)N=C(N)N)ccc12 [Example 172]	1 to 10
NC(N)=NC(=O)c1ccc2c(Cl)cnc(-c3ccncc3F)c2c1 [Example 173]	10 to 100
COc1cc(F)ccc1-c1ncc(Cl)c2ccc(C(=O)N=C(N)N)cc12 [Example 174]	10 to 100
NC(N)=NC(=O)c1ccc2c(Cl)cnc(-c3ccccc3F)c2c1 [Example 175]	1 to 10
NC(N)=NC(=O)c1ccc2c(F)cnc(-c3ccc(F)cc3)c2c1 [Example 190]	1 to 10
NC(N)=NC(=O)c1ccc2c(F)cnc(-c3ccc(Cl)cc3)c2c1 [Example 191]	10 to 100
NC(N)=NC(=O)c1ccc2c(Cl)cnc(-c3ccc(Cl)cc3F)c2c1 [Example 195]	1 to 10
NC(N)=NC(=O)c1ccc2c(C(F)(F)F)cnc(-c3c(F)cccc3F)c2c1 [Example 196]	10 to 100
COc1cnc(-c2c(F)cccc2F)c2cc(C(=O)N=C(N)N)ccc12 [Example 197]	1 to 10

SMILES	Ki [nM]
NC(N)=NC(=O)c1ccc2c(Cl)cnc(C3CC3)c2c1 [Example 198]	1 to 10
NC(N)=NC(=O)c1ccc2c(F)cnc(-c3cccc(Cl)c3O)c2c1 [Example 199]	10 to 100
NC(N)=NC(=O)c1ccc2c(F)cnc(-c3cccc(F)c3Cl)c2c1 [Example 200]	1 to 10
NC(N)=NC(=O)c1ccc2c(F)cnc(-c3cccc(Cl)c3F)c2c1 [Example 201]	1 to 10
COc1cc(F)ccc1-c1ncc(F)c2ccc(C(=O)N=C(N)N)cc12 [Example 202]	10 to 100
COc1cccc(Cl)c1-c1ncc(F)c2ccc(C(=O)N=C(N)N)cc12 [Example 203]	1 to 10
COc1cc(Cl)ccc1-c1ncc(F)c2ccc(C(=O)N=C(N)N)cc12 [Example 204]	10 to 100
NC(N)=NC(=O)c1ccc2c(F)cnc(-c3cccc(F)c3F)c2c1 [Example 205]	10 to 100
Cc1cnc(-c2c(F)cccc2Cl)c2cc(C(=O)N=C(N)N)ccc12 [Example 206]	1 to 10
NC(N)=NC(=O)c1ccc2c(Cl)cnc(-c3ccc(F)cc3F)c2c1 [Example 211]	1 to 10
NC(N)=NC(=O)c1ccc2c(Cl)cnc(-c3cc(F)c(F)cc3F)c2c1 [Example 212]	10 to 100
Cc1ccccc1-c1ncc(Cl)c2ccc(C(=O)N=C(N)N)cc12 [Example 213]	1 to 10
NC(N)=NC(=O)c1ccc2c(Cl)cnc(-c3cc(F)ccc3F)c2c1 [Example 214]	1 to 10
NC(N)=NC(=O)c1ccc2c(C(F)F)cnc(-c3ccccc3F)c2c1 [Example 215]	10 to 100
NC(N)=NC(=O)c1ccc2c(F)cnc(-c3c(O)cccc3F)c2c1 [Example 216]	1 to 10
Cc1cccc(C)c1-c1ncc(Cl)c2ccc(C(=O)N=C(N)N)cc12 [Example 222]	1 to 10
NC(N)=NC(=O)c1ccc2c(CO)cnc(-c3c(F)cccc3F)c2c1 [Example 224]	10 to 100
NC(N)=NC(=O)c1ccc2cccc(-c3ccccc3)c2n1 [Example 225]	100 to 300
NC(N)=NC(=O)c1ccc2cccc(-c3c(F)cc(F)cc3F)c2n1 [Example 226]	1 to 10
NC(N)=NC(=O)c1cnc2cccc(-c3c(F)cc(F)cc3F)c2c1 [Example 227]	10 to 100
NC(N)=NC(=O)c1ccc2cncc(-c3ccc(F)cc3F)c2c1 [Example 228]	10 to 100

System: Male ICR mouse
Experiment: Hyperactivity (quantity of motion) induced by MK-801 in mice
Type: in vivo
Details: oral dose 0.03 mg/kg; MK-801 0.3 mg/kg; P<0.05
Experimental: The improvement effect of compound of formula (I) on schizophrenia was evaluated by measuring the quantity of motion inhibited by administration of the compound in a model in which the symptoms were induced by methamphetamine (hereinafter abbreviated as MAP) and MK-801.
The animal was taken out of a breeding cage, orally administered with a test compound, and then placed into a cage for breeding. After 30 minutes, the animal was put into a cage for measurement, and the quantity of motion with the test compound alone was measured. Further, after 30 to 90 minutes, the animal was taken out, and subcutaneously or intraperitoneally administered with a drug for increasing the quantity of motion (MAP; 1.5 mg/kg or MK-801; 0.3 mg/kg, dissolved in physiological saline, respectively). Then, the quantity of motion for a certain period of time (60 minutes) was measured using a device for measuring the quantity of motion (CompACT AMS manufactured by Muromachi Kikai Co., Ltd.) by means of an infrared sensor.
For a normal mouse (a mouse administered with physiological saline) and a mouse administered with a drug for increasing the quantity of motion, a Student's T test was performed for evaluation for each interval. For a group administered with the test compound, an assay was performed using a solvent (vehicle) group and a Dunnett's T test. For the evaluation, if there was a significant difference (P<0.05), it was considered that there is an effect.

SMILES	hyperactivity induced by MK-801
NC(N)=NC(=O)c1ccc2c(F)cnc(-c3c(F)cncc3F)c2c1 [Example 157]	significantly inhibited

Same assay, conditions: oral dose 0.1 mg/kg; MK-801 0.3 mg/kg; P<0.05

SMILES	hyperactivity induced by MK-801
NC(N)=NC(=O)c1ccc2ncc(Cl)c(-c3ccc(F)cc3)c2c1 [Example 73]	significantly inhibited
